These results are taken from US20040049086A1, “Diphenol and process for producing the same” (priority 2001, published 2004).

The term melting point denotes the temperature of the solid-liquid transition.

The compound `Cc1cc(C2CCC(c3ccc(O)cc3)CC2)ccc1O` (stereo not drawn) [Example 1 of Example B, 4-(4′-(4″-hydroxyphenyl)cyclohexyl)-2-methyl-1-hydroxybenzene] gave a melting point of 159 °C.
For `Cc1cc(-c2ccc(-c3ccc(O)cc3)cc2)ccc1O` [Example 1 of Example C, 4-hydroxy-3″-methyl-4″-hydroxy-p-terphenyl] the value was 251.4 °C.
The value for `Cc1cc(C2=CCC(c3ccc(O)cc3)CC2)ccc1O` (stereo not drawn) [Example 2 of Example A, 1-(3-methyl-4-hydroxyphenyl)-4-(4-hydroxyphenyl)-1-cyclohexene] was 201 °C; that for `Cc1cc(-c2ccc(-c3ccc(O)cc3)cc2)cc(C)c1O` [Example 2 of Example C, 4-hydroxy-3″,5″-dimethyl-4″-hydroxy-p-terphenyl] was 231 °C; that for `CC(C)(C)c1cc(C2=CCC(c3ccc(O)cc3)CC2)ccc1O` (stereo not drawn) [Example 4 of Example A, 1-(3-t-butyl-4-hydroxyphenyl)-4-(4-hydroxyphenyl)-1-cyclohexene] was 188 °C.
For the compound `Cc1cc(C2=CCC(c3ccc(O)cc3)CC2)cc(C)c1O` (stereo not drawn) [Example 5 of Example A, 1-(3,5-dimethyl-4-hydroxyphenyl)-4-(4-hydroxyphenyl)-1-cyclohexene], the melting point was 224 °C.
